The source of these data is US20060223879A1, “Non-steroidal farnesoid x receptor modulators” (priority 2002, published 2006).

Each structure is given as a SMILES string. Read-outs that look alike come from different tables or passages of the source.

As a reminder, the EC50 is the concentration needed to bring the measured effect to its halfway point.

The target of this test is T1, FXR (Homo sapiens, UniProt Q96RI1).
T1 construct: using a full length FXR on a natural response element; expressed in transfected cells
T1 sequence (Q96RI1 1-486): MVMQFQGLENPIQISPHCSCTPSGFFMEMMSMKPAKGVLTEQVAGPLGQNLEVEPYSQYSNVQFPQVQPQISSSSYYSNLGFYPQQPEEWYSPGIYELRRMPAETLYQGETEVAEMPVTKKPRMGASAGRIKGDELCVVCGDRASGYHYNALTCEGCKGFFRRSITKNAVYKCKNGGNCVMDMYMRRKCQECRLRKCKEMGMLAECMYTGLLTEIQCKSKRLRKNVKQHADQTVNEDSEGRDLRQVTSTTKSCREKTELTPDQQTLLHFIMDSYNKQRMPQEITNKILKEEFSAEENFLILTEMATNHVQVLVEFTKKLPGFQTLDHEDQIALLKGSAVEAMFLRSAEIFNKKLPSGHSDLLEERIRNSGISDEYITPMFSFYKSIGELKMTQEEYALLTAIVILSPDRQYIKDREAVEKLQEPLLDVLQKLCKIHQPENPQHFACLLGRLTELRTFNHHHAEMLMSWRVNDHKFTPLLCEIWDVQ
Description: cell-based transcription assay, FXR responsive promoter linked to a luciferase reporter. Also on record: RE: scale not given here. To be noted: for EC50: FXR activation, read-out: EC50; for EC50 / FXR activation (in words): cell-based reporter assay; for RE: RE not defined in the source. From the text: In addition to ensuring that only cell permeable compounds were selected for further optimization, this approach allows for the detection of FXR activation in a natural system (i.e., correct folding of the protein and in the presence of a complete compliment of co-activators and co-repressors).
The feasibility of creating high throughput screens (XIS) for ORs was explored using FXR as a candidate orphan receptor (OR) with a known activator, chenodeoxycholic acid (CDCA) as a ligand. The screen is based on the co-transfection of a full-length receptor with the reporter vector containing a natural hormone response element under a minimal eukaryotic promoter. […] Using this 384-well format, the high throughput screening (HTS) approach to FXR as a candidate OR was employed. […] A central question in the feasibility studies is whether this library is suitable for screening for nuclear receptor ligands. Samples of this library were first reformatted into a 384-well format and then subjected to the FXR cell-based assays described above and assessed for FXR-mediated transcriptional activity. Cells were exposed to approximately 10 μM of sample for 18 hrs prior to washing and luciferase analysis.
EC50 values were determined with Prism 3.0 software via the activity of the subject compound in the previously described cell based assay.
For orientation: Reporter assays use an easily measured gene product as a stand-in for the process of interest.

As to `COC(=O)/C=C/c1cccc(N(Cc2ccc(-c3cccc(C)c3)cc2)C(=O)C(C)C)c1` [Compound 239], where the note is “Tables 1-15”, the EC50 was 163 nM and the RE was determined as 1.09.
On to `COC(=O)/C=C/c1cccc(N(Cc2ccc(-c3cccc(C)c3)cc2)C(=O)NC(C)C)c1` [Compound 240], for which, where the note is “Tables 1-15”, the EC50 stood at 1330 nM and the RE stood at 0.53.
For the compound `COC(=O)/C=C/c1cccc(N(Cc2ccc(-c3ccc(CC(C)C)cc3)cc2)C(=O)C(C)C)c1` [Compound 263], where the note is “Tables 1-15”, the EC50 turned out to be 343 nM and the RE amounted to 0.59.
As to `COC(=O)/C=C/c1cccc(N(Cc2ccc(/C=C/c3cccc(C(F)(F)F)c3)cc2)C(=O)C(C)C)c1` [Compound 187], for the setting “Tables 1-15”, the EC50 was found to be 267 nM and the RE turned out to be 0.70.
Turning to `COC(=O)/C=C/c1cccc(N(Cc2ccc(-c3cccc(Cl)c3)cc2)C(=O)C2CCCCC2)c1` [Compound 232], the “FXR activation (in words)” value is recorded as “excellent activity”. In addition, where the note is “Tables 1-15”, the EC50 is 94 nM and the RE worked out at 1.56.
In the case of `COC(=O)/C=C/c1cccc(N(Cc2ccc(-c3c(OC)cccc3OC)cc2)C(=O)NC(C)C)c1` [Compound 258], where the note is “Tables 1-15”, the EC50 was 561 nM and the RE came to 0.10.
The corresponding values for `COC(=O)/C=C/c1cccc(N(Cc2ccc(-c3cc(Cl)ccc3OC)cc2)C(=O)NC(C)C)c1` [Compound 243] are 3080 nM and 0.17.
With `COC(=O)/C=C/c1cccc(N(Cc2ccc(-c3cccc(OC(F)(F)F)c3)cc2)C(=O)C(C)C)c1` [Compound 254], for the setting “Tables 1-15”, the EC50 is 247 nM and the RE turned out to be 0.59.
As to `CCOC(=O)C=Cc1cccc(N(Cc2ccc(C=CC(=O)OC(C)(C)C)cc2)C(=O)C2CCCCC2)c1` [Compound 133], the “FXR activation (in words)” value was “marked decline in potency”.
For the compound `COC(=O)C=Cc1cccc(N(Cc2ccc(C=Cc3ccc(OC)cc3)cc2)C(=O)C2CCCCC2)c1` [Compound 122], the EC50 was 208 nM. This compound came in with an RE (Tables 1-15) of 1.67.
Regarding `COC(=O)/C=C/c1cccc(N(C)Cc2ccc3c(c2OC)OC(C)(C)C=C3)c1` [Compound 79], the “FXR activation (in words)” value was “inactive”.
For the compound `COC(=O)/C=C/c1cccc(N(Cc2ccc(-c3ccc(OC(F)(F)F)cc3)cc2)C(=O)C2CCCCC2)c1` [Compound 250], where the note is “Tables 1-15”, the 50% effective concentration (EC50) is 264 nM and the RE worked out at 1.04.
As to `COC(=O)/C=C/c1cccc(N(Cc2ccc(-c3ccc(F)c(Cl)c3)cc2)C(=O)C2CCCCC2)c1` [Compound 247], the “FXR activation (in words)” value was “excellent activity”. Moreover, for the setting “Tables 1-15”, the concentration giving a half-maximal response (EC50) worked out at 66 nM and the RE was 1.67.
Turning to `COC(=O)/C=C/c1cccc(N(Cc2ccc(/C=C/c3cc(C(F)(F)F)cc(C(F)(F)F)c3)cc2)C(=O)NC(C)C)c1` [Compound 185], for the setting “Tables 1-15”, the concentration for a half-maximal effect (EC50) was 1830 nM and the RE came out at 0.13.
For `CCOC(=O)COc1cc(C=CC(=O)OC(C)(C)C)ccc1CN(C(=O)C1CCCCC1)c1cccc(C=CC(=O)OC)c1` [Compound 167], where the note is “Tables 1-15”, the EC50 is more than 1000 nM and the RE is 0.16.
The corresponding values for `COC(=O)/C=C/c1cccc(N(Cc2ccc(/C=C/c3cc(C(F)(F)F)cc(C(F)(F)F)c3)cc2)C(=O)C(C)C)c1` [Compound 184] are 1950 nM and 0.13.
On to `COC(=O)/C=C/c1cccc(N(Cc2ccc(-c3ccc(OC)cc3)cc2)C(=O)C(C)C)c1` [Compound 230], for which the “FXR activation (in words)” value is listed as “excellent activity”. Further, for the setting “Tables 1-15”, the EC50 was found to be 97 nM.
Turning to `COC(=O)C=Cc1cccc(N(Cc2ccc(C=CC(=O)NCC(C)C)cc2)C(=O)C2CCCCC2)c1` [Compound 155], under “Tables 1-15”, the EC50 is more than 1000 nM and the RE is given as 1.85.
Consider `COC(=O)/C=C/c1cccc(N(Cc2ccc(-c3cccc(OC)c3)cc2)C(=O)C(C)C)c1` [Compound 224], for which the “FXR activation (in words)” value is on record as “excellent activity”. Also, the EC50 (Tables 1-15) turned out to be 72 nM.
For `COC(=O)/C=C/c1cccc(N(Cc2ccc(-c3ccc(F)c(F)c3)cc2)C(=O)C(C)C)c1` [Compound 214], under “Tables 1-15”, the half-maximal effective concentration (EC50) is 249 nM and the RE is 1.15.
Take `COC(=O)/C=C/c1cccc(N(Cc2ccc3c(c2OC)OC(C)(C)C(C)C3=O)C(=O)c2ccccc2)c1` (stereo not shown) [Compound 90]: the “FXR activation (in words)” value was “Nor did the addition of H-bond acceptors such as in 89, 90, 95, 99 and 101 improve the ability of the parent compound 68 to activate FXR”.
Take `COC(=O)/C=C/c1cccc(N(Cc2ccc(Br)cc2)C(=O)C2CCCCC2)c1` [Compound 112]: where the note is “Tables 1-15”, the EC50 is more than 1000 nM and the RE came out at 0.28.
For the compound `COC(=O)/C=C/c1cccc(N(Cc2ccc(-c3cccc(Cl)c3)cc2)C(=O)C(C)C)c1` [Compound 233], the “FXR activation (in words)” value is “excellent activity”.
As to `COC(=O)/C=C/c1cccc(N(Cc2ccccc2Br)C(=O)C2CCCCC2)c1` [Compound 114], under “Tables 1-15”, the EC50 was more than 1000 nM and the RE is 0.11.
`COC(=O)/C=C/c1cccc(N(Cc2ccc(-c3cccc(Cl)c3)cc2)C(=O)NC(C)C)c1` [Compound 234]: where the note is “Tables 1-15”, the EC50 is 1400 nM and the RE worked out at 0.49.
On to `COC(=O)C=Cc1cccc(N(Cc2ccc3c(c2OC)OC(C)(C)C(O)C3O)C(=O)c2ccccc2)c1` (stereo not shown) [Compound 94], for which the “FXR activation (in words)” value was “did not improve the activity”.
Consider `COC(=O)C=Cc1cccc(N(Cc2ccc(C=Cc3ccccn3)cc2)C(=O)NC(C)C)c1` [Compound 209], for which, where the note is “Tables 1-15”, the EC50 was 575 nM and the RE worked out at 0.68.
Turning to `COC(=O)/C=C/c1cccc(N(Cc2ccc(/C=C/C(=O)OC(C)(C)C)cc2)C(=O)NCc2ccccc2)c1` [Compound 146], the “FXR activation (in words)” value is given as “only marginal efficacy”. Also, for the setting “Tables 1-15”, the concentration for a half-maximal effect (EC50) is more than 1000 nM and the RE was found to be 0.27.
As to `COC(=O)/C=C/c1cccc(N(Cc2ccc(-c3cc(Cl)cc(Cl)c3)cc2)C(=O)NC(C)C)c1` [Compound 222], for the setting “Tables 1-15”, the EC50 was more than 10000 nM and the RE was 0.10.
On to `COC(=O)CCc1cccc(N(Cc2ccc(/C=C/C(=O)OC(C)(C)C)cc2)C(=O)C2CCCCC2)c1` [Compound 139], for which the concentration for a half-maximal effect (EC50) worked out at 274 nM. Under “Tables 1-15”, the RE entry was “RE^a = 1.38”.
For `COC(=O)/C=C/c1cccc(N(Cc2ccc(-c3ccc(F)c(F)c3)cc2)C(=O)NC(C)C)c1` [Compound 215], for the setting “Tables 1-15”, the EC50 was determined as 8180 nM and the RE came to 0.23.
In the case of `COC(=O)/C=C/c1cccc(N(Cc2ccc(-c3ccc(OC)cc3)cc2)C(=O)NC(C)C)c1` [Compound 231], for the setting “Tables 1-15”, the EC50 was found to be 144 nM and the RE is 1.16.
The corresponding values for `CC(C)(C)OC(=O)/C=C/c1cccc(N(Cc2ccc(CCC(=O)OC(C)(C)C)cc2)C(=O)C2CCCCC2)c1` [Compound 160] are more than 1000 nM and 0.84.
In the case of `COC(=O)/C=C/c1cccc(N(Cc2ccc(-c3ccc(OC)cc3)cc2)C(=O)C2CCCCC2)c1` [Compound 229], the “FXR activation (in words)” value is listed as “excellent activity”. Besides, for the setting “Tables 1-15”, the concentration giving a half-maximal response (EC50) turned out to be 89 nM and the RE is on record as 1.71.
As to `COC(=O)C=Cc1cccc(N(Cc2ccc(C=CC(=O)N(C)C)cc2)C(=O)C2CCCCC2)c1` [Compound 154], where the note is “Tables 1-15”, the EC50 is more than 1000 nM and the RE came to 0.66.
The corresponding values for `CCOC(=O)C=Cc1ccc(CN(C(=O)C2CCCCC2)c2cccc(C=CC(=O)OC)c2)cc1` [Compound 151] are more than 1000 nM and 1.14.
Regarding `COC(=O)/C=C/c1cccc(N(Cc2ccc(-c3ccc(C(C)(C)C)cc3)cc2)C(=O)NC(C)C)c1` [Compound 264], where the note is “Tables 1-15”, the EC50 was found to be 262 nM and the RE was 1.02.
Turning to `COC(=O)C=Cc1cccc(N(Cc2ccc3c(c2OC)OC(C)(C)C(OC(C)=O)C3N2CCCCC2)C(=O)c2ccccc2)c1` (stereo not shown) [Compound 101], the “FXR activation (in words)” value was “Nor did the addition of H-bond acceptors such as in 89, 90, 95, 99 and 101 improve the ability of the parent compound 68 to activate FXR”.
Take `COC(=O)/C=C/c1cccc(N(Cc2ccc(-c3ccc(OC(F)(F)F)cc3)cc2)C(=O)NC(C)C)c1` [Compound 252]: where the note is “Tables 1-15”, the EC50 was 7530 nM and the RE is listed as 0.21.
Regarding `COC(=O)/C=C/c1cccc(NC(=O)C2CCCCC2)c1` [Compound 132], under “Tables 1-15”, the EC50 was more than 1000 nM and the RE was determined as 0.09.
As for `COC(=O)C=Cc1cccc(N(Cc2ccc(C=CC(=O)OC(C)(C)C)cc2O)C(=O)C2CCCCC2)c1` [Compound 161], where the note is “Tables 1-15”, the EC50 is more than 1000 nM and the RE is on record as 0.12.
On to `COC(=O)/C=C/c1cccc(N(Cc2ccc(-c3cc(Cl)ccc3OC)cc2)C(=O)C2CCCCC2)c1` [Compound 241], for which, where the note is “Tables 1-15”, the EC50 came out at 233 nM and the RE turned out to be 1.16.
